One data set concerns normal cells. The settings on record: cited from earlier work.
A further data set has as its system viruses. The note with it: cited from earlier work.

`CC(=O)[O-].CC(=O)[O-].[Zn+2]` [zinc acetate]: the “toxicity to normal cells” value in the data set with normal cells is given as “quite toxic to normal cells”. The anti-viral activity result in the data set with viruses is reported as “very toxic to viruses”.
`O=C([O-])CC([O-])(CC(=O)[O-])C(=O)[O-].[Cu+2].[Na+].[Na+]` [MCC, disodium monocopper (II) citrate dihydrate]: the anti-inflammatory performance result with inflammatory processes is “demonstrated utility on relieving inflammatory processes”.

These data come from patent US20060089407A1, “Methods for Making and Using Synergistic Multifunctional Compositions” (NATIONAL RESEARCH LABORATORIES, LTD., priority 2004, published 2006).
